{
  "source": "patent US12441774B2",
  "about": "“Molecular guide system peptides and uses thereof” (SRI International, priority 2017, dated 2025)",
  "key": {"EphA2 [1]": {"target": "T1, EphA2 (Homo sapiens, UniProt P29317)", "T1 construct": "endogenous in cells", "T1 sequence (P29317 24-976, species assumed)": "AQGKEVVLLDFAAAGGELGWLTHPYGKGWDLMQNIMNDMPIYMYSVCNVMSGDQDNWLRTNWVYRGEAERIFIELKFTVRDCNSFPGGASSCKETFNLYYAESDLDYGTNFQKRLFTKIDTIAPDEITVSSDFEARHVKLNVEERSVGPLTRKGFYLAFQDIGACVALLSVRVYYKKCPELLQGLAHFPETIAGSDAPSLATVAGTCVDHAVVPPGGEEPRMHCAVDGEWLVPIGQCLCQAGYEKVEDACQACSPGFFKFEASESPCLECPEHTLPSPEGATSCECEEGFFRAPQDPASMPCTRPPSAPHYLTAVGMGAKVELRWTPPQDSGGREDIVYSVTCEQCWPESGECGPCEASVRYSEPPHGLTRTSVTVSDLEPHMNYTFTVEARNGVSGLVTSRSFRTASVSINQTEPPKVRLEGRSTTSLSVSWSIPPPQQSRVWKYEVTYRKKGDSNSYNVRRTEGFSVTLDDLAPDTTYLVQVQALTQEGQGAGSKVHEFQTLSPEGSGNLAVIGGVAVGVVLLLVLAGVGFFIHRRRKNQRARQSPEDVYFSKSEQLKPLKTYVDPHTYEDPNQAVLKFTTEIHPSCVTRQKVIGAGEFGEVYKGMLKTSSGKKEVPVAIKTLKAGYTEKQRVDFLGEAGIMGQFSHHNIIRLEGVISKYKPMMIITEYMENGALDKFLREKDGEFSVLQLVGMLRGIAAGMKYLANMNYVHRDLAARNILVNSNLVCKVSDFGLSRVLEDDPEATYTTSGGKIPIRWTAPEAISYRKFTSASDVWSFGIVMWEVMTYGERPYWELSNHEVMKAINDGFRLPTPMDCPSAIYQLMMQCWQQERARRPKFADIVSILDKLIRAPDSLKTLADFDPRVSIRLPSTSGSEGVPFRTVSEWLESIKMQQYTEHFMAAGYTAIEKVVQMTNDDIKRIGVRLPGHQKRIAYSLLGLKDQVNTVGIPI", "assay": "MGS_H1299.2 V4 binding to purified EphA2", "conditions": "EphA2 study", "excerpt": "(§1) The cellular receptor for MGS_H1299.2 v4 is EphA2. The following results were obtained during a study on EphA2."}, "cellular receptor": {"tested_on": "cellular receptor", "assay": "Receptor recycle vs new receptor synthesis in MGS internalization", "type": "cell-based"}, "EphA2 [2]": {"target": "T1, EphA2", "assay": "EphA2 dependence of MGS_H1299.2 V4 cell binding and internalization", "type": "cell-based", "excerpt": "as §1"}, "[3]": {"tested_on": "non-small cell lung cancer cells", "assay": "Cellular location of MGS, non-small cell lung cancer cells", "type": "cell-based", "conditions": "Intracellular = uptake confirmed, exact compartment not determined", "excerpt": "(§2) The FOX-Three Platform has already been validated for targeting of cells and subcellular components. A number of validated MGSs are in various stages of development (Tables 1 and 2) for a variety of cell targeting systems. Methods of conjugating a variety of payloads to the peptide MGSs have been established without disrupting their targeting ability. […] While cell targeting has been established and there are a number of competing antibody-based technologies for targeting the surfaces of target cells, intracellular MGSs were not previously known. […] For example, delivery of a MAb intended to bind to proteins involved in DNA replication in the cell nucleus will be therapeutically ineffective if trapped in the Golgi or other locations in the cell. The FOX-Three screening process was recently refined to include subcellular location targeting as a selection criteria. MGSs have been isolated that accumulate in lysosomes, autophagosomes, and Golgi inside cancer cells, as well as target the plasma membrane (FIG. 3)."}, "[4]": {"tested_on": "non-small cell lung cancer cells", "assay": "Binding to non-small cell lung cancer cells versus normal control cells", "type": "cell-based", "excerpt": "(§3) The peptide EHPWFNMWSWATQVQE (SEQ ID NO:38) (H2009.2) has been pushed forward first."}, "viable cells in culture": {"tested_on": "viable cells in culture", "assay": "Cellular uptake of MGS-conjugated MAb (flow cytometry)", "type": "cell-based", "experimental": "Peptide MGS with a biotin tag (“handle”) was coupled to an anti-biotin antibody. The antibody was labeled with a fluorescent tag. Panel A. MGS peptide-antibody was incubated with viable cells in culture. Uptake of the antibody into the cells was determined by flow cytometry and normalized to antibody uptake with no MGS peptide. Panel B. Uptake of the antibody was determined by fluorescent microscopy and is indicated by red “dots” in the left panel. The MGS peptide can deliver the antibody to the desired location. Using a MGS peptide that internalizes and directs cargo to the Golgi apparatus in the cell, an antibody was delivered to that subcellular compartment. Panel C. MGS peptide-Antibody was injected I.V. into a tumor bearing mouse. At set times points, near-infrared imaging was used to determine uptake of the antibody in the tumor.\nA small peptidic-MGS delivers a large monoclonal antibody into a cell in vitro and in vivo. Small peptides would not be able to carry a MAb that is almost greater than 60-times its molecular weight. Cells were treated with a MAb alone and no cellular uptake occurred. But when that MAb was conjugated to one of the identified MGS peptides, a […] increase in cellular uptake was seen.\nPeptidic-MGSs can deliver a MAb and increases cellular uptake by 20-380 (FIG. 4A). Peptidic-MGS can deliver a MAb to a discrete subcellular location as dictated by the MGS. […]"}, "cancer cell": {"tested_on": "cancer cell", "assay": "Delivery of cell impermeable protein-toxin, cancer cell death", "type": "cell-based", "conditions": "peptide delivering a cell impermeable protein-toxin", "excerpt": "as §3"}, "NSCLC cell lines": {"tested_on": "NSCLC cell lines", "assay": "Cellular uptake kinetics of valency versions of HCC15.2", "type": "cell-based", "conditions": "4 NSCLC cell lines"}, "Dendritic Cells": {"tested_on": "Dendritic Cells", "assay": "Cellular location of MGS, dendritic cells", "type": "cell-based", "conditions": "Intracellular = uptake confirmed, exact compartment not determined", "excerpt": "as §2"}, "Lymphoma Cells": {"tested_on": "Lymphoma Cells", "assay": "Cellular location of MGS, lymphoma cells", "type": "cell-based", "excerpt": "as §2"}, "Cardiomyocytes": {"tested_on": "Cardiomyocytes", "assay": "Cellular location of MGS, cardiomyocytes", "type": "cell-based", "conditions": "Intracellular = uptake confirmed, exact compartment not determined", "excerpt": "as §2"}},
  "note": "“Also recorded” adds a separate entry of the source. Where a SMILES comes first, the peptide text is derived from it. Primed or numbered codes have the meaning given here. Where no end group is shown, it is not given here. [ ]: non-standard residue; d: D form. PEG11 = NCCOCCOCCOCCOCCOCCOCCOCCOCCOCCOCCOCCC(=O)O; PEG11′ = not defined here",
  "data": [
    {"compound": "CC(=O)N[C@@H](Cc1ccc(O)cc1)C(=O)N[C@@H](C)C(=O)N[C@@H](C)C(=O)N[C@@H](Cc1c[nH]c2ccccc12)C(=O)N1CCC[C@H]1C(=O)N[C@@H](C)C(=O)N[C@@H](CO)C(=O)NCC(=O)N[C@@H](C)C(=O)N[C@@H](Cc1c[nH]c2ccccc12)C(=O)N[C@H](C(=O)NCCOCCOCCOCCOCCOCCOCCOCCOCCOCCOCCOCCC(=O)N[C@@H](CS)C(N)=O)[C@@H](C)O", "note": "[MGS_H1299.2 V4, CH3CO—YAAWPASGAWT—PEG11—C—NH2] (Ac-YAAWPASGAWT[PEG11]C-NH2)", "values": [
      {"measurement": "competition with EprhrinA1 for binding", "setting": "EphA2 [1]", "result": "compete for binding"},
      {"measurement": "fate of the bound cellular receptor upon internalization", "setting": "cellular receptor", "result": "primarily degraded upon internalization"},
      {"measurement": "EphA2 internalization and co-localization", "setting": "EphA2 [2]", "result": "induces EphaA2 internalization and co-localizes with the receptor in lysosome"},
      {"measurement": "peptide binding to cells", "setting": "EphA2 [2]; increasing EphA2 in cells", "result": "increases MGS_H1299.2 V4 binding"},
      {"measurement": "peptide binding to cells", "setting": "EphA2 [2]; reduction of EphA2 in cells", "result": "abrogates MGS_H1299.2 V4 binding"}
    ]},
    {"compound": "AHTIDDEWASYHMQQWNSPP [MGS_H2009.4]", "values": [
      {"measurement": "Cellular Location", "setting": "[3]", "result": "MGS_H2009.4_Golgi/ER"}
    ]},
    {"compound": "ATEPRKQYATPRVFWTDAPG [MGS_HCC15.1]", "values": [
      {"measurement": "Cellular Location", "setting": "[3]", "result": "MGS_HCC15.1_Intracellular"}
    ]},
    {"compound": "CH3CO—FHAVPQSFYT—PEG11—C—NH2 (Ac-FHAVPQSFYT[PEG11′]C-NH2) [HCC15.2 v8]", "values": [
      {"measurement": "fate of the bound cellular receptor upon internalization", "setting": "cellular receptor", "result": "primarily degraded upon internalization"}
    ]},
    {"compound": "CH3CO—LQWRRNFGVWARYRL—PEG11—C—NH2 (Ac-LQWRRNFGVWARYRL[PEG11′]C-NH2) [HCC15.1 v4]", "values": [
      {"measurement": "fate of the bound cellular receptor upon internalization", "setting": "cellular receptor", "result": "primarily degraded upon internalization"}
    ]},
    {"compound": "CH3CO—RGDLATLRQL—PEG11—YC—NH2 (Ac-RGDLATLRQL[PEG11′]YC-NH2) [MGS_H2009.1 v4]", "values": [
      {"measurement": "fate of the bound cellular receptor upon internalization", "setting": "cellular receptor", "result": "rapidly recycled back to the cell surface"}
    ]},
    {"compound": "EAMNSAEQSAAVVQWEKRRI [MGS_H460.1]", "values": [
      {"measurement": "Cellular Location", "setting": "[3]", "result": "MGS_H460.1_PlasmaMembrane"}
    ]},
    {"compound": "EHPWFNMWSWATQVQE [MGS_H2009.2]", "values": [
      {"measurement": "Cellular Location", "setting": "[3]", "result": "MGS_H2009.2_Lysosome"},
      {"measurement": "cell binding specificity", "setting": "[4]", "result": "binds to 3 different non-small cell lung cancer cells with minimal binding to normal control cells"},
      {"measurement": "intracellular delivery of MAb", "setting": "viable cells in culture", "result": "delivers a MAb intracellularly"},
      {"measurement": "potency to induce cell death", "setting": "cancer cell", "result": 80, "unit": "nM"}
    ]},
    {"compound": "FAAKRAEWWDPGQLWDAVWN [MGS_H1993.2]", "values": [
      {"measurement": "Cellular Location", "setting": "[3]", "result": "MGS_H1993.2_Intracellular"}
    ]},
    {"compound": "FEEFYSRQSNTIPYPQQYKG [MGS_H2009.5]", "values": [
      {"measurement": "Cellular Location", "setting": "[3]", "result": "MGS_H2009.5_ER/Lysosome"}
    ]},
    {"compound": "FHAVPQSFYTAP [MGS_HCC15.2]", "values": [
      {"measurement": "Cellular Location", "setting": "[3]", "result": "MGS_HCC15.2_Intracellular"},
      {"measurement": "change of peptide affinity with valency", "setting": "NSCLC cell lines; dimer", "result": "significant enhancement of peptide affinity with dimerization"},
      {"measurement": "change of peptide affinity with valency", "setting": "NSCLC cell lines; tetramer", "result": "modest improvement upon tetramerization"}
    ]},
    {"compound": "GPEDTSRAPENQQKTFHRRW [MGS_XS52.1]", "values": [
      {"measurement": "Cellular Location", "setting": "Dendritic Cells", "result": "MGS_XS52.1_Intacellular"}
    ]},
    {"compound": "KSREHVNNSACPSKRITAAL [MGS_A20.2]", "values": [
      {"measurement": "Cellular Location", "setting": "Lymphoma Cells", "result": "MGS_A20.2_Plasma Membrane"}
    ]},
    {"compound": "LQWRRDDNVHNFGVWARYRL (Ac-LQWRRDDNVHNFGVWARYRL) [MGS_1299.3]", "values": [
      {"measurement": "Cellular Location", "setting": "[3]", "result": "MGS_1299.3_Lysosome/; also recorded: Autophagosomes"}
    ]},
    {"compound": "MDGATWWTQLDPLLVWEGET [MGS_H1993.5]", "values": [
      {"measurement": "Cellular Location", "setting": "[3]", "result": "MGS_H1993.5_Intracellular"}
    ]},
    {"compound": "MTVCNASQRQAHAQATAVSL [MGS_A549.1]", "values": [
      {"measurement": "Cellular Location", "setting": "[3]", "result": "MGS_A549.1_Intracellular"}
    ]},
    {"compound": "QEALEEWFWKMMPWSGPSGQ [MGS_H1993.3]", "values": [
      {"measurement": "Cellular Location", "setting": "[3]", "result": "MGS_H1993.3_Intracellular"}
    ]},
    {"compound": "RGDLATLRQLAQEDGVVGVR [MGS_H2009.1]", "values": [
      {"measurement": "Cellular Location", "setting": "[3]", "result": "MGS_H2009.1_Golgi"}
    ]},
    {"compound": "SADWFQGPAEWLLEGWMGPL [MGS_H1993.6]", "values": [
      {"measurement": "Cellular Location", "setting": "[3]", "result": "MGS_H1993.6_Intracellular"}
    ]},
    {"compound": "SAKTAVSQRVWLPSHRGGEP [MGS_A20.1]", "values": [
      {"measurement": "Cellular Location", "setting": "Lymphoma Cells", "result": "MGS_A20.1_PlasmaMembrane"}
    ]},
    {"compound": "SVEYWGERMYYDVMESLGFS [MGS_H1993.1]", "values": [
      {"measurement": "Cellular Location", "setting": "[3]", "result": "MGS_H1993.1_Lysosome"}
    ]},
    {"compound": "TWTDFGQWPWPFGAEGTRAF [MGS_H1993.4]", "values": [
      {"measurement": "Cellular Location", "setting": "[3]", "result": "MGS_H1993.4_Pre-mitotic cells only"}
    ]},
    {"compound": "VSQTMRQTAVPLLWFWTGSL [MGS_H1299.1]", "values": [
      {"measurement": "Cellular Location", "setting": "[3]", "result": "MGS_H1299.1_Intracellular"}
    ]},
    {"compound": "WLSEAGPVVTVRALRGTGSW [MGS_PCM.1]", "values": [
      {"measurement": "Cellular Location", "setting": "Cardiomyocytes", "result": "MGS_PCM.1_Intracellular"},
      {"measurement": "Cellular Location", "setting": "Lymphoma Cells", "result": "MGS_PCM.1_Plasma Membrane"}
    ]},
    {"compound": "YAAWPASGAWTGTAPCSAGT [MGS_H1299.2]", "values": [
      {"measurement": "Cellular Location", "setting": "[3]", "result": "MGS_H1299.2_Intracellular"}
    ]},
    {"compound": "YPGSPTQYPSSMHEYHSSSE [MGS_H2009.3]", "values": [
      {"measurement": "Cellular Location", "setting": "[3]", "result": "MGS_H2009.3_Lysosome"}
    ]}
  ]
}
